# Laboratory results taken from patent publication US20200108034A1, “USE OF CITRULLINE AND GLUTATHIONE TO INCREASE MUSCLE MASS” (KYOWA HAKKO BIO CO., LTD., priority 2017, published 2020).
# Assays:
# Format in all cases: in vivo, human
# [1] = Whole blood cell counts with differentials, day 0 and day 57; conditions: mean ± SEM; for Absolute basophils / Absolute eosinophils / Absolute lymphocytes / Absolute monocytes / Absolute neutrophils / Hb / Platelet / RBC / WBC: N = 25; for Red cell distribution width: N = 25, in % (unit assumed)
# Procedure: (§1) Seventy-five resistance-trained (e.g., regular, resistance training thrice weekly for at least one year prior to the study) males between the ages of 18-35 and having a BMI between 18.5 and 30 kg/m^2 were divided into 3 groups of 25, wherein each group received one of the following supplements: (A) 2 g/day L-citrulline (CIT) and 200 mg/day glutathione (GSH), (B) 2 g/day L-citrulline malate only, or (C) 2.52 g/day of cellulose placebo. Participants were matched by total body mass and then randomly assigned a supplementation protocol in a double-blind fashion. Participants took their supplements one hour prior to their workout on exercise days. On non-exercise days, participants took their supplements in the morning with breakfast.
# (§2) Venous blood samples were obtained from the antecubital vein using a standard VACUTAINER™ apparatus into one tube for serum separation and one for whole blood. The serum separation tubes were allowed to stand at room temperature for 15 minutes and then centrifuged for 10 minutes, and serum was removed and placed into a microfuge tube. Blood samples were obtained prior to the first dose of supplement and prior to beginning the resistance training program (day 0) and after eight weeks of supplementation and resistance training (day 57).
# (§3) Serum samples were assayed for the following general clinical chemistry markers: glucose, total protein, blood urea nitrogen, creatinine, BUN/creatinine ratio, AST, ALT, albumin, globulin, total bilirubin, alkaline phosphatase. Whole blood samples were assayed for standard cell blood counts with percentage differentials, such as hemoglobin, red blood cell counts, white blood cell counts, neutrophils, lymphocytes, monocytes, eosinophils, and basophils.
# [2] = Body composition (body mass, DEXA fat mass, bioimpedance total body water) at days 0, 29, 57; conditions: mean ± SEM, N = 25; for Fat Mass: DEXA; for Total Body Water: bioelectrical impedance
# Procedure: as §1
# (§4) Body composition was measured at days 0, 29, and 57 during the study. Total body mass (kg) was determined on a standard dual beam balance scale (Detecto, Bridgeview, Ill.). Percent body fat, fat mass, and fat-free mass were determined using DEXA (Discovery Series W, commercially available from Hologic, Waltham, Mass.). Quality control calibration procedures were performed on a spine phantom (X-CALIBER Model DPA/QDR-1 anthropometric spine phantom, commercially available from Hologic, Waltham, Mass.) and a density step calibration phantom prior to each testing session. Total body water was determined with bioelectrical impedance spectroscopy (Tanita Inc., Arlington Heights, Ill.) using a low energy, high frequency current (500 micro amps at a frequency of 50 kHz).
# Participants engaged in a supervised, periodized 4 day per week resistance-training program split into two upper and two lower extremity workouts per week for a total of 8 weeks. Prior to the workout, participants performed a standardized series of stretching exercises. The participants then performed an upper-body resistance-training program consisting of bench press, lat pull, shoulder press, seated row, shoulder shrugs, chest fly, biceps curl, triceps press down, and abdominal curls, twice per week, and a lower-body program consisting of leg press, back extension, step ups, leg curls, leg extension, heel raises, and abdominal crunches, also performed twice per week. Participants performed 3 sets of 10 repetitions with as much weight as they could lift per set (typically 70 to 80% of 1-RM). Rest periods between exercises and sets lasted no longer than 2 minutes.
# [3] = Serum general clinical chemistry markers, day 0 and day 57; conditions: mean ± SEM, N = 25
# Procedure: as §1, §2, §3
# [4] = Change in muscle mass after 8-week resistance training with supplementation
# Procedure: as §1
# as §4, with “Quality control calibration procedures were performed on a spine phantom (X-CALIBER Model DPA/QDR-1 anthropometric spine phantom, commercially available from Hologic, Waltham, Mass.) and a density step calibration phantom prior to each testing session.” left out, “kHz). […]” for “kHz).”
compound,measurement,setting,value
"NC(=O)NCCC[C@H](N)C(=O)O.O=C(O)CC(O)C(=O)O [CIT-malate, L-citrulline malate]",Absolute basophils,[1]; 8 weeks,26.8 ± 3.2 µL⁻¹
same,Absolute eosinophils,[1]; 8 weeks,312.8 ± 79.5 µL⁻¹
same,Absolute lymphocytes,[1]; 8 weeks,1902.7 ± 85.5 µL⁻¹
same,Absolute monocytes,[1]; 8 weeks,370.5 ± 30.7 µL⁻¹
same,Absolute neutrophils,[1]; 8 weeks,3292.4 ± 318.9 µL⁻¹
same,Hb,[1]; 8 weeks,15.0 ± 0.1 g/dL
same,Platelet,[1]; 8 weeks,212.4 ± 8.0 ×10^3/μL
same,RBC,[1]; 8 weeks,5.1 ± 0.06 ×10^6/μL
same,WBC,[1]; 8 weeks,5.7 ± 0.3 ×10^3/μL
same,Red cell distribution width,[1]; 8 weeks,13.5 ± 0.4
same,Absolute basophils,[1]; Baseline,31.2 ± 3.3 µL⁻¹
same,Absolute eosinophils,[1]; Baseline,130.5 ± 16.6 µL⁻¹
same,Absolute lymphocytes,[1]; Baseline,2032.1 ± 131.4 µL⁻¹
same,Absolute monocytes,[1]; Baseline,371.8 ± 25.6 µL⁻¹
same,Absolute neutrophils,[1]; Baseline,3652.2 ± 306.1 µL⁻¹
same,Hb,[1]; Baseline,15.1 ± 0.2 g/dL
same,Platelet,[1]; Baseline,218.2 ± 10.9 ×10^3/μL
same,RBC,[1]; Baseline,5.1 ± 0.07 ×10^6/μL
same,WBC,[1]; Baseline,6.2 ± 0.3 ×10^3/μL
same,Red cell distribution width,[1]; Baseline,13.3 ± 0.1
same,Fat Mass,[2]; Baseline,11.2 ± 1.04 kg
same,Total Body Water,[2]; Baseline,47.9 ± 1.14 kg
same,Body Mass,[2]; Baseline,79.2 ± 2.50 kg
same,Fat Mass,[2]; supplementation week 4,11.5 ± 0.92 kg
same,Total Body Water,[2]; supplementation week 4,48.1 ± 1.16 kg
same,Body Mass,[2]; supplementation week 4,79.5 ± 2.52 kg
same,Fat Mass,[2]; supplementation week 8,11.9 ± 0.96 kg
same,Total Body Water,[2]; supplementation week 8,48.4 ± 1.14 kg
same,Body Mass,[2]; supplementation week 8,80.1 ± 2.42 kg
same,ALP,[3]; 8 weeks,73.0 ± 4.5 IU/L
same,ALT,[3]; 8 weeks,22.9 ± 1.8 IU/L
same,AST,[3]; 8 weeks,21.3 ± 1.3 IU/L
same,Albumin,[3]; 8 weeks,4.7 ± 0.05 g/dL
same,Albumin/Globulin,[3]; 8 weeks,1.9 ± 0.06
same,Bilirubin,[3]; 8 weeks,0.6 ± 0.05 mg/dL
same,Creatinine,[3]; 8 weeks,1.1 ± 0.04 mg/dL
same,Glucose,[3]; 8 weeks,101.8 ± 3.9 mg/dL
same,Total protein,[3]; 8 weeks,7.2 ± 0.1 g/dL
same,Urea nitrogen,[3]; 8 weeks,16.9 ± 0.7 mg/dL
same,ALP,[3]; Baseline,74.9 ± 4.5 IU/L
same,ALT,[3]; Baseline,24.9 ± 2.4 IU/L
same,AST,[3]; Baseline,23.8 ± 1.5 IU/L
same,Albumin,[3]; Baseline,4.9 ± 0.05 g/dL
same,Albumin/Globulin,[3]; Baseline,2.0 ± 0.07
same,Bilirubin,[3]; Baseline,0.7 ± 0.08 mg/dL
same,Creatinine,[3]; Baseline,1.1 ± 0.03 mg/dL
same,Glucose,[3]; Baseline,97.5 ± 3.4 mg/dL
same,Total protein,[3]; Baseline,7.4 ± 0.1 g/dL
same,Urea nitrogen,[3]; Baseline,16.8 ± 0.8 mg/dL
same,participants who displayed increases in muscle mass at both 4 and 8 weeks,"[4]; FIG. 2, 25 per group",36%
same,change in muscle mass,"[4]; at 4 and 8 weeks, vs placebo, heavy resistance training, FIGS. 1A and 1B",increase in muscle mass compared to persons receiving only placebo
